In a melting point compilation (Tetko et al.):

Point of comparison: c1ccc(-c2ccc3cc4ccc(-c5ccccc5)nc4cc3n2)cc1, melting point 279 °C. Against it:
- C/C(=N/NC(N)=S)C(=O)Nc1ccc(Br)cc1 — lower, 228 to 230 °C
- Cc1ncc(CO)c(CO)c1O — lower, 160 °C
- O=C1NC(=S)NC(=O)C1=NNc1cccc([N+](=O)[O-])c1 — higher, 330 °C
- CCOC(=O)Cn1c(=O)sc2cccc(Cl)c21 — lower, 79.2 °C
- CC12CCC3C(CCC4=CC(=O)C=CC43O)C1CCC2=O (configuration not stated) — lower, 219 to 221 °C
- O=C(O)c1ccnc(Cl)c1 — lower, 231 °C
- CC(O)c1c(F)c(F)c(F)c(F)c1F (configuration not stated) — lower, 34 to 37 °C
- NC(=S)c1ccc(F)c(Cl)c1 — lower, 129 to 131 °C
- Nc1nc(-c2ccccc2)cs1 — lower, 150 °C
- Cc1cc(C)c(C#N)c(O)n1 — higher, 285 to 287 °C
- CCCCCCCCCCCCCCCc1ccccc1 — lower, 22 °C
- CC(C)(C(N)=O)n1nnc2ccccc21 — lower, 187 °C
- Nc1cc(F)ccc1O — lower, 140 °C
- Cc1ccc(C)c(CNC2=CC(=O)c3ccccc3C2=O)c1 — lower, 164 °C
- Nc1ccc(C=Cc2ccccc2)c(N)c1 — lower, 116 °C
- COc1cc(C/C(=N\O)C(=O)O)ccc1O — lower, 139 °C
- CC(C)S(=O)(=O)c1cnc(N2CCCCC2)nc1N — lower, 155 to 158 °C
- FC(F)(F)c1cc(Cl)c2cccc(Cl)c2n1 — lower, 62 °C
- O=C1Nc2c(Cl)cccc2C1=O — lower, 190 °C
- NS(=O)(=O)C(F)(F)F — lower, 118 °C
- N#CCN1C(=O)c2ccccc2S1(=O)=O — lower, 142 to 143 °C
- Nc1cccc(-c2cccc(N)c2)c1 — lower, 93.5 °C
- OCCN1CCN(c2ncc(Cl)cc2C(F)(F)F)CC1 — lower, 58 to 59 °C
- O=[N+]([O-])c1cc([N+](=O)[O-])c(C=Nc2ccccc2)cc1C=Nc1ccccc1 — lower, 165 °C
- O=C1C(c2ccccc2)=[N+]([O-])c2ccccc21 — lower, 186 °C
- Cc1ccccc1NC(=S)NN — lower, 147 °C
- O=c1[nH]ncc2ccccc12 — lower, 188 °C
- CN(C)c1ccc(-c2ccc(N(C)C)cc2)cc1 — lower, 194 °C
- O=C(O)[C@@H](O)CCN1C(=O)c2ccccc2C1=O — lower, 157 to 159 °C
- COc1ccc(Br)cc1/C=c1\sc2nc3ccccc3n2c1=O — lower, 250 to 252 °C
- CC(=O)OCC1OC(S)C(OC(C)=O)C(OC(C)=O)C1OC(C)=O (configuration not stated) — lower, 114 to 119 °C
- ClC=CCl — lower, -80 °C
- CC(C)(C)OC(=O)N[C@@H](CCC(=O)O)C(=O)O — lower, 110 to 113 °C
- COc1ccc(C(O)C(O)c2ccccc2)cc1 (configuration not stated) — lower, 129 °C
- Cc1ccc2c(c1)CCCN2 — lower, 35 °C
- COc1cc(CC(C)N)c(OC)cc1C (configuration not stated) — lower, 60.8 °C
- CCOC(=O)c1cnc(SC)nc1Cl — lower, 62 °C
- CCN(Cc1ccc(Cl)nc1)C(=C[N+](=O)[O-])NC — lower, 83.5 °C
- O=C(O)CS(=O)(=O)c1ccccc1 — lower, 112 to 114 °C
- ON=CC=Cc1ccccc1 — lower, 115 to 125 °C
- O=C(CBr)c1ccc(-c2ccsc2)cc1 — lower, 113 to 115 °C
- COC(=O)c1cccc(C(=O)OC)n1 — lower, 123 °C
- O=C(O)Cc1n[nH]c(=O)c2ccccc12 — lower, 220 to 223 °C
- CCCCCCCC(=O)OCCC — lower, -46.2 °C
- O=Nc1c(Cl)cccc1Cl — lower, 172 °C
- c1ccc2c(c1)NC1(CCCC1)N2 — lower, 190 °C
- O=C(O)C=C(CC(=O)O)C(=O)O — lower, 187 to 191 °C
- COc1cc2ccc(=O)oc2cc1OC — lower, 146 °C
- CCCCCCCCCCCCCC(C)C — lower, -7 °C
- O=[N+]([O-])c1c[nH]cn1 — higher, 303 °C
- Nc1ccc(F)cc1O — lower, 138 °C
- O=C(O)c1ccc(-n2cccn2)cc1 — lower, 269 to 270 °C
- C=C[Si](OCCOC)(OCCOC)OCCOC — lower, -30 °C
- CC(C)(C)c1nnc(N)s1 — lower, 183 °C
- Cc1cc(C)c(CC#N)c(C)c1 — lower, 78.5 °C
- COC(=O)C=Cc1cccs1 — lower, 49 °C
- CC12CCCC1C1CCC3CC(=O)CCC3(C)C1CC2 (configuration not stated) — lower, 102 °C
- Cc1cc(C(N)=S)no1 — lower, 169 to 172 °C
- c1ccc(CC(=NNc2ccccc2)/C(Cc2ccccc2)=N\Nc2ccccc2)cc1 — lower, 181 °C
- O=C(O)C(O)c1ccc(C(F)(F)F)cc1 (configuration not stated) — lower, 130 to 134 °C
- O=C(Cl)c1ccc(Cl)nc1 — lower, 50 °C
- CCCCOC(=O)c1ccccc1C(=O)OCc1ccccc1 — lower, 230 °C
- O=C1CCC2CC1CCC2=O — lower, 151 °C
- Fc1ccc(I)cc1 — lower, -20 °C
- CC1CCC2(C(=O)O)CCC3(C)C(=CCC4C5(C)CCC(O)C(C)(C)C5CCC43C)C2C1C (configuration not stated) — higher, 284 °C
- CSc1nc(N)nc(-c2ccccn2)n1 — lower, 193 to 196 °C
